Laboratory results reported in the supplement of paper PMC10307832.

Key:
Assay in all cases: relative viability (nuclei count vs DMSO), 5 days (fraction); higher = more cells survive
Sunitinib + OSI-027 = compound: CCN(CC)CCNC(=O)c1c(C)[nH]c(/C=C2\C(=O)Nc3ccc(F)cc32)c1C [Sunitinib] + COc1cccc2cc(-c3nc([C@H]4CC[C@H](C(=O)O)CC4)n4ncnc(N)c34)[nH]c12 [OSI-027] (partner 0.5 µM)
In short: (§1)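 Lung cancer cell lines in 1536-well plates got either a single drug or a fixed anchor-drug dose together with five library-drug doses (not always all listed) in √10 steps, by pin tool, on the day after seeding. Nuclei were counted after 5 days, and relative viability is the treated-to-vehicle ratio of nuclei counts. Values are medians of duplicate plates.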

Sunitinib + Trametinib = compound: CCN(CC)CCNC(=O)c1c(C)[nH]c(/C=C2\C(=O)Nc3ccc(F)cc32)c1C [Sunitinib] + CC(=O)Nc1cccc(-n2c(=O)n(C3CC3)c(=O)c3c(Nc4ccc(I)cc4F)n(C)c(=O)c(C)c32)c1 [Trametinib] (partner 0.02 µM)
In short: as §1

Sunitinib + Phenformin = compound: CCN(CC)CCNC(=O)c1c(C)[nH]c(/C=C2\C(=O)Nc3ccc(F)cc32)c1C [Sunitinib] + N=C(N)NC(=N)NCCc1ccccc1 [Phenformin] (partner 250 µM)
In short: as §1

Sunitinib + Crizotinib = compound: CCN(CC)CCNC(=O)c1c(C)[nH]c(/C=C2\C(=O)Nc3ccc(F)cc32)c1C [Sunitinib] + C[C@@H](Oc1cc(-c2cnn(C3CCNCC3)c2)cnc1N)c1c(Cl)ccc(F)c1Cl [Crizotinib] (partner 1 µM)
In short: as §1

NCI-H661
relative viability (Sunitinib + OSI-027; first compound 0.02 µM): 0.646 | relative viability (Sunitinib + OSI-027; first compound 0.06325 µM): 0.785 | relative viability (Sunitinib + OSI-027; first compound 0.2 µM): 0.801 | relative viability (Sunitinib + OSI-027; first compound 0.6325 µM): 0.767 | relative viability (Sunitinib + OSI-027; first compound 2 µM): 0.704 | relative viability (Sunitinib + Trametinib; first compound 0.02 µM): 0.513 | relative viability (Sunitinib + Trametinib; first compound 0.06325 µM): 0.597 | relative viability (Sunitinib + Trametinib; first compound 0.2 µM): 0.703 | relative viability (Sunitinib + Trametinib; first compound 0.6325 µM): 0.63 | relative viability (Sunitinib + Trametinib; first compound 2 µM): 0.649 | relative viability (Sunitinib + Phenformin; first compound 0.02 µM): 0.263 | relative viability (Sunitinib + Phenformin; first compound 0.06325 µM): 0.31 | relative viability (Sunitinib + Phenformin; first compound 0.2 µM): 0.27 | relative viability (Sunitinib + Phenformin; first compound 0.6325 µM): 0.264 | relative viability (Sunitinib + Phenformin; first compound 2 µM): 0.265 | relative viability (Sunitinib + Crizotinib; first compound 0.02 µM): 1.09 | relative viability (Sunitinib + Crizotinib; first compound 0.06325 µM): 0.987 | relative viability (Sunitinib + Crizotinib; first compound 0.2 µM): 1 | relative viability (Sunitinib + Crizotinib; first compound 0.6325 µM): 0.978 | relative viability (Sunitinib + Crizotinib; first compound 2 µM): 1.17

NCI-H727
relative viability (Sunitinib + OSI-027; first compound 0.02 µM): 0.717 | relative viability (Sunitinib + OSI-027; first compound 0.06325 µM): 0.574 | relative viability (Sunitinib + OSI-027; first compound 0.2 µM): 0.757 | relative viability (Sunitinib + OSI-027; first compound 0.6325 µM): 0.687 | relative viability (Sunitinib + OSI-027; first compound 2 µM): 0.631 | relative viability (Sunitinib + Trametinib; first compound 0.02 µM): 0.409 | relative viability (Sunitinib + Trametinib; first compound 0.06325 µM): 0.412 | relative viability (Sunitinib + Trametinib; first compound 0.2 µM): 0.412 | relative viability (Sunitinib + Trametinib; first compound 0.6325 µM): 0.396 | relative viability (Sunitinib + Trametinib; first compound 2 µM): 0.367 | relative viability (Sunitinib + Phenformin; first compound 0.02 µM): 0.475 | relative viability (Sunitinib + Phenformin; first compound 0.06325 µM): 0.733 | relative viability (Sunitinib + Phenformin; first compound 0.2 µM): 0.649 | relative viability (Sunitinib + Phenformin; first compound 0.6325 µM): 0.67 | relative viability (Sunitinib + Phenformin; first compound 2 µM): 0.538 | relative viability (Sunitinib + Crizotinib; first compound 0.02 µM): 0.724 | relative viability (Sunitinib + Crizotinib; first compound 0.06325 µM): 0.832 | relative viability (Sunitinib + Crizotinib; first compound 0.2 µM): 0.808 | relative viability (Sunitinib + Crizotinib; first compound 0.6325 µM): 0.926 | relative viability (Sunitinib + Crizotinib; first compound 2 µM): 0.738

NCI-H838
relative viability (Sunitinib + OSI-027; first compound 0.02 µM): 0.386 | relative viability (Sunitinib + OSI-027; first compound 0.06325 µM): 0.358 | relative viability (Sunitinib + OSI-027; first compound 0.2 µM): 0.423 | relative viability (Sunitinib + OSI-027; first compound 0.6325 µM): 0.319 | relative viability (Sunitinib + OSI-027; first compound 2 µM): 0.317 | relative viability (Sunitinib + Trametinib; first compound 0.02 µM): 0.473 | relative viability (Sunitinib + Trametinib; first compound 0.06325 µM): 0.558 | relative viability (Sunitinib + Trametinib; first compound 0.2 µM): 0.647 | relative viability (Sunitinib + Trametinib; first compound 0.6325 µM): 0.534 | relative viability (Sunitinib + Trametinib; first compound 2 µM): 0.489 | relative viability (Sunitinib + Phenformin; first compound 0.02 µM): 0.546 | relative viability (Sunitinib + Phenformin; first compound 0.06325 µM): 0.769 | relative viability (Sunitinib + Phenformin; first compound 0.2 µM): 0.583 | relative viability (Sunitinib + Phenformin; first compound 0.6325 µM): 0.583 | relative viability (Sunitinib + Phenformin; first compound 2 µM): 0.511 | relative viability (Sunitinib + Crizotinib; first compound 0.02 µM): 0.768 | relative viability (Sunitinib + Crizotinib; first compound 0.06325 µM): 0.863 | relative viability (Sunitinib + Crizotinib; first compound 0.2 µM): 0.916 | relative viability (Sunitinib + Crizotinib; first compound 0.6325 µM): 0.884 | relative viability (Sunitinib + Crizotinib; first compound 2 µM): 0.64

NCI-H1355
relative viability (Sunitinib + OSI-027; first compound 0.02 µM): 0.431 | relative viability (Sunitinib + OSI-027; first compound 0.06325 µM): 0.455 | relative viability (Sunitinib + OSI-027; first compound 0.2 µM): 0.441 | relative viability (Sunitinib + OSI-027; first compound 0.6325 µM): 0.437 | relative viability (Sunitinib + OSI-027; first compound 2 µM): 0.365 | relative viability (Sunitinib + Trametinib; first compound 0.02 µM): 0.44 | relative viability (Sunitinib + Trametinib; first compound 0.06325 µM): 0.438 | relative viability (Sunitinib + Trametinib; first compound 0.2 µM): 0.567 | relative viability (Sunitinib + Trametinib; first compound 0.6325 µM): 0.437 | relative viability (Sunitinib + Trametinib; first compound 2 µM): 0.376 | relative viability (Sunitinib + Phenformin; first compound 0.02 µM): 0.441 | relative viability (Sunitinib + Phenformin; first compound 0.06325 µM): 0.453 | relative viability (Sunitinib + Phenformin; first compound 0.2 µM): 0.473 | relative viability (Sunitinib + Phenformin; first compound 0.6325 µM): 0.482 | relative viability (Sunitinib + Phenformin; first compound 2 µM): 0.432 | relative viability (Sunitinib + Crizotinib; first compound 0.02 µM): 0.982 | relative viability (Sunitinib + Crizotinib; first compound 0.06325 µM): 1.08 | relative viability (Sunitinib + Crizotinib; first compound 0.2 µM): 1.25 | relative viability (Sunitinib + Crizotinib; first compound 0.6325 µM): 1.1 | relative viability (Sunitinib + Crizotinib; first compound 2 µM): 1.12
